The values below come from ChEMBL document CHEMBL1157986, “Vismiaphenones D-G, new prenylated benzophenones from Vismia cayennensis” (J Nat Prod, 1999).

Values after ≈ are worked out from the molar mass of the structure shown.

The subject of assay [1] is Human immunodeficiency virus. Description: Antiviral activity against HIV. The following applies: Human immunodeficiency virus 1. In kind it is functional, organism-based.
A further assay deals with CEM-SS. Description: Cytotoxicity against human CEM-SS cells. It is filed as functional, cell-based.

One may read the EC50 as the concentration needed to bring the measured effect to its halfway point. In general, IC50 refers to the concentration that inhibits the measured activity by half. In assay [1], `COc1c(CC=C(C)C)c(O)c(C(=O)c2ccc(O)cc2)c(O)c1CC=C(C)C` [VISMIAPHENONE D] gave an EC50 of 11 µg/mL (≈ 27.7 µM). The 50% inhibitory concentration (IC50) with CEM-SS turned out to be 30 µg/mL (≈ 75.7 µM).
